In the assay the target is T1, human ΔF508-CFTR (Homo sapiens, UniProt P13569, DEL508-508).
T1 construct: expressed in transfected cells
Briefly: CFTR-YFP High Throughput Assay (YFP halide flux in FRT cells). The assay is classed as cell-based. The note with it: FRT cells expressing human ΔF508-CFTR and YFP; forskolin stimulated. As for the experimental part: Assays for Detecting and Measuring the Effect of Compounds on dF508-CFTR Channels CFRT-YFP High Throughput Assay:
The following protocol is designed to selectively screen small molecule compounds for F508del CFTR corrector activities in the HTS YFP flux assay. In this protocol, the cells are incubated with testing compounds for 24 hours, washed with PBS, stimulated with forskolin and a standard potentiator, and read on a 384-well HTS plate reader, such as the Hamamatsu FDDD-6000.
YFP fluorescence intensity is acquired at high speed before and after iodide buffer is injected to the assay cells. Iodide enters the cells via active CFTR channels in the plasma membrane, and quenches the YFP fluorescence. The rate of fluorescence quenching is proportionally related to the total CFTR activities in the cell membrane. dF508-CFTR corrector accelerates YFP quenching by increasing the number of CFTR molecules in the testing cell plasma membrane.
This method was initially developed for bench top plate readers (Galietta et al., 2001), and was adapted to the HTS format (Sui et al. Assay Drug Dev. Technol. 2010).
Fisher Rat Thyroid (FRT) cells stably expressing both human AF508-CFTR and a halide-sensitive yellow fluorescent protein (YFP—H148Q/1152L 25, 22) (Galietta et al., Am. J. Physiol Cell Physiol 281(5), C1734, 2001) were cultured on plastic surface in Coon's modified Ham's F12 medium supplemented with FBS 10%, L-glutamine 2 mM, penicillin 100 U/mL, and streptomycin 100 μg/mL. G418 (0.75-1.0 mg/mL) and zeocin (3.2 ug/mL) were used for selection of FRT cells expressing ΔF508-CFTR and YFP. For primary screening, FRT cells were plated into 384-well black wall, transparent bottom microtiter plates (Costar; Corning Inc.) at a cell density of 20,000-40,000 per well. Test compound was applied to the cells at varying concentrations ranging from […] in either a 2-fold or 3-fold dilution series. Cells were incubated in a cell culture incubator at 37° C. with 5% CO2 for 24-26 h. Assay plates were washed with DPBS media (Thermo, cat# SH30028.02) to remove unbound cells and compound. Stimulation media (25 μL) containing 20 μM Forskolin & 30 μM P3 [6-(Ethyl-phenyl-sulfonyl)-4-oxo-1,4-dihydro-quinoline-3-carboxylic acid 2-methoxy-benzylamide] in Hams F-12 coon's modified media was added to the plate wells and incubated at room temperature for 60-120 min. 25 μL of HEPES-PBS-I buffer (10 mM HEPES, 1 mM MgCl2, 3 mM KCl, 1 mM CaCl2, 150 mM NaI) was then added and fluorescence quench curves (Excitation 500 nm/Emission 540 nm; exposure 136 ms) were immediately recorded on an FDSS-6000 plate reader (Hamamatsu). Quench rates were derived from least squares fitting of the data as described by Sui et al., (2010).
The following protocol is designed to selectively screen small molecule compounds for F508del CFTR potentiator activities in the HTS YFP flux assay. In this protocol, the cells are incubated at 27 C for 24 hours with homogeneously boosted dF508-CFTR expression in the cell membrane by the low temperature, washed with PBS, stimulated with forskolin, and read on a 384-well HTS plate reader, such as the Hamamatsu FDDD-6000.
YFP fluorescence intensity is acquired at high speed before and after iodide buffer is injected to the assay cells. Iodide enters the cells via active CFTR channels in the plasma membrane, and quenches the YFP fluorescence. The rate of fluorescence quenching is proportionally related to the total CFTR activities in the cell membrane. dF508del-CFTR potentiators accelerate YFP quenching by increasing CFTR activities in the testing cell plasma membrane.
Fisher Rat Thyroid (FRT) cells stably expressing both human ΔF508-CFTR and a halide-sensitive yellow fluorescent protein (YFP-H148Q/I152L 25, 22) (Galietta et al., Am. J. Physiol Cell Physiol 281(5), C1734, 2001) were cultured on plastic surface in Coon's modified Ham's F12 medium supplemented with FBS 10%, L-glutamine 2 mM, penicillin 100 U/mL, and streptomycin 100 μg/mL. […]

pEC50: −log10 of the molar value. Bounds are passed on as bounds.

T1 sequence (P13569 with tags, fused parts or gaps DEL508-508): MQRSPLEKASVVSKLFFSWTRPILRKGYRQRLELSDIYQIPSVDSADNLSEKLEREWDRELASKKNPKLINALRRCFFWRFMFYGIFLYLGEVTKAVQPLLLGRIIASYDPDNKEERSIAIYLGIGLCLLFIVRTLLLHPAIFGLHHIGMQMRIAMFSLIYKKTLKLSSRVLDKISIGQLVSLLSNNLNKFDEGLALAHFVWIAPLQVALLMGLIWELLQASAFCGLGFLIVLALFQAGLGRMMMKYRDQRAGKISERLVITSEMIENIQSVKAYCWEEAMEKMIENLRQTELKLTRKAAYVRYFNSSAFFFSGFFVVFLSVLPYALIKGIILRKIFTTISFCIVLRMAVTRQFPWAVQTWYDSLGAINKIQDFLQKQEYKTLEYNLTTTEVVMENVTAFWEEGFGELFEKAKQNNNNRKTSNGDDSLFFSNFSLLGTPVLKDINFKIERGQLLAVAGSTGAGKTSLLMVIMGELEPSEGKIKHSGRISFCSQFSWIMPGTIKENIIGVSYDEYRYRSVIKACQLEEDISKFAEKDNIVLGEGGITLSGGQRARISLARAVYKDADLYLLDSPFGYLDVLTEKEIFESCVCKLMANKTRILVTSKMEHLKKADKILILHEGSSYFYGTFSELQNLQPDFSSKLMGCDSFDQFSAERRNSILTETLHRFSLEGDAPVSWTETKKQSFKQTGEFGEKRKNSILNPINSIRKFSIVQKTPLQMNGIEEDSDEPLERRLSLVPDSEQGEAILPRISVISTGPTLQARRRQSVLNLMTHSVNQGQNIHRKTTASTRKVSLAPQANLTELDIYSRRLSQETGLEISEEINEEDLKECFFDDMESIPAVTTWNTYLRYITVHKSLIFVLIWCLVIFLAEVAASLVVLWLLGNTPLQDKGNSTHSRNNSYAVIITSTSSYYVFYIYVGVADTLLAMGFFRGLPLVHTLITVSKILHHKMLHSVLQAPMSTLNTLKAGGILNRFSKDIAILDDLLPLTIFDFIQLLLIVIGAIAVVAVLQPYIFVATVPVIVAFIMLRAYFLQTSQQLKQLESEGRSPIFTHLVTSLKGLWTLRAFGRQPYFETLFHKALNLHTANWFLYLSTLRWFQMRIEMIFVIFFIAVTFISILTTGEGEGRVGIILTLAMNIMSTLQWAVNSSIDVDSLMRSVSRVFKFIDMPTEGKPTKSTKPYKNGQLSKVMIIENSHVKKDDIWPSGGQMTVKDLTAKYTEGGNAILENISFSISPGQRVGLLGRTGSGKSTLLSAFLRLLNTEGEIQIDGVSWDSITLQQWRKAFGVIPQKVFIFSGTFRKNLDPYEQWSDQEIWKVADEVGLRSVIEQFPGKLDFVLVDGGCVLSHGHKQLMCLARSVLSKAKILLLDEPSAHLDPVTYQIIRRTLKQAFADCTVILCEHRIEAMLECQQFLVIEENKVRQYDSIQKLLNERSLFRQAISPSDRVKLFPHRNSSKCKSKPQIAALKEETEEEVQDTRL

Take `CCN(C(=O)Cn1nc(Cc2cccnc2)c2cccc(OC3CCCCC3)c2c1=O)c1ccc2c(c1)OC(F)(F)O2` [Example 59, 2-(8-(cyclohexyloxy)-1-oxo-4-(pyridin-3-ylmethyl)phthalazin-2(1H)-yl)-N-(2,2-difluorobenzo[d][1,3]dioxol-5-yl)-N-ethylacetamide]: the negative logarithm of the EC50 (pEC50) is over 5.00.

As to `CCN(C(=O)Cn1nc(Cc2cccnc2)c2c(OC3CCCCC3)cccc2c1=O)c1ccc2c(c1)OC(F)(F)O2` [Example 60, 2-(5-(cyclohexyloxy)-1-oxo-4-(pyridin-3-ylmethyl)phthalazin-2(1H)-yl)-N-(2,2-difluorobenzo[d][1,3]dioxol-5-yl)-N-ethylacetamide], the negative-log EC50 (pEC50) was over 5.00.

On to `CCN(C(=O)Cn1nc(Cc2cccnc2)c2cccc(OCCOC)c2c1=O)c1ccc2c(c1)OC(F)(F)O2` [Example 61, N-(2,2-difluorobenzo[d][1,3]dioxol-5-yl)-N-ethyl-2-(8-(2-methoxyethoxy)-1-oxo-4-(pyridin-3-ylmethyl)phthalazin-2(1H)-yl)acetamide], for which the negative-log EC50 (pEC50) is over 5.00.

Consider `CCN(C(=O)Cn1nc(Cc2cccnc2)c2c(OCCOC)cccc2c1=O)c1ccc2c(c1)OC(F)(F)O2` [Example 62, N-(2,2-difluorobenzo[d][1,3]dioxol-5-yl)-N-ethyl-2-(5-(2-methoxyethoxy)-1-oxo-4-(pyridin-3-ylmethyl)phthalazin-2(1H)-yl)acetamide], for which the negative-log EC50 (pEC50) is over 5.00.

As to `COc1ccc2c(-c3cccc(C#N)c3)nn(CC(=O)N(C)c3ccc4c(c3)OC(F)(F)O4)c(=O)c2c1` [Example 63, 2-(4-(3-cyanophenyl)-7-methoxy-1-oxophthalazin-2(1H)-yl)-N-(2,2-difluorobenzo[d][1,3]dioxol-5-yl)-N-methylacetamide], the negative-log EC50 (pEC50) was over 5.00.

For the compound `COc1ccc2c(-c3ccc(S(N)(=O)=O)cc3)nn(CC(=O)N(C)c3ccc4c(c3)OC(F)(F)O4)c(=O)c2c1` [Example 64, N-(2,2-difluorobenzo[d][1,3]dioxol-5-yl)-2-(7-methoxy-1-oxo-4-(4-sulfamoylphenyl)phthalazin-2(1H)-yl)-N-methylacetamide], the pEC50 is over 5.00.

For the compound `CCN(C(=O)Cn1nc(-c2ccc(S(N)(=O)=O)cc2)c2ccc(OC)cc2c1=O)c1ccc2c(c1)OC(F)(F)O2` [Example 65, N-(2,2-difluorobenzo[d][1,3]dioxol-5-yl)-N-ethyl-2-(7-methoxy-1-oxo-4-(4-sulfamoylphenyl)phthalazin-2(1H)-yl)acetamide], the pEC50 was over 5.00.

For `CCN(C(=O)Cn1nc(-c2ccc(S(N)(=O)=O)cc2)c2ccc(OC)cc2c1=O)c1ccc(OC(F)F)cc1` [Example 66, N-(4-(difluoromethoxy)phenyl)-N-ethyl-2-(7-methoxy-1-oxo-4-(4-sulfamoylphenyl)phthalazin-2(1H)-yl)acetamide], the negative logarithm of the EC50 (pEC50) was under 4.70.

With `CCN(C(=O)Cn1nc(-c2cccc(C#N)c2)c2ccc(OC)cc2c1=O)c1ccc(OC(F)F)cc1` [Example 67, 2-(4-(3-cyanophenyl)-7-methoxy-1-oxophthalazin-2(1H)-yl)-N-(4-(difluoromethoxy)phenyl)-N-ethylacetamide], the pEC50 was over 5.00.

Regarding `COc1ccc2c(-c3ccc(S(N)(=O)=O)cc3)nn(CC(=O)N(c3ccc4c(c3)OC(F)(F)O4)C(C)C)c(=O)c2c1` [Example 69, N-(2,2-difluorobenzo[d][1,3]dioxol-5-yl)-N-isopropyl-2-(7-methoxy-1-oxo-4-(4-sulfamoyl-phenyl)phthalazin-2(1H)-yl)acetamide], the pEC50 was over 5.00.

In the case of `COc1ccc2c(-c3cccc(C#N)c3)nn(CC(=O)N(c3ccc4c(c3)OC(F)(F)O4)C(C)C)c(=O)c2c1` [Example 70, 2-(4-(3-cyanophenyl)-7-methoxy-1-oxophthalazin-2(1H)-yl)-N-(2,2-difluorobenzo[d][1,3]dioxol-5-yl)-N-isopropylacetamide], the pEC50 was over 5.00.

Regarding `COc1ccc2c(-c3ccc(S(N)(=O)=O)cc3)nn(CC(=O)N(c3ccc4c(c3)OC(F)(F)O4)C3CC3)c(=O)c2c1` [Example 71, N-cyclopropyl-N-(2,2-difluorobenzo[d][1,3]dioxol-5-yl)-2-(7-methoxy-1-oxo-4-(4-sulfamoylphenyl)phthalazin-2(1H)-yl)acetamide], the negative-log EC50 (pEC50) is over 5.00.

In the case of `COc1ccc2c(-c3cccc(C#N)c3)nn(CC(=O)N(c3ccc4c(c3)OC(F)(F)O4)C3CC3)c(=O)c2c1` [Example 72, 2-(4-(3-cyanophenyl)-7-methoxy-1-oxophthalazin-2(1H)-yl)-N-cyclopropyl-N-(2,2-difluorobenzo[d][1,3]dioxol-5-yl)acetamide], the pEC50 is over 5.00.

Turning to `CCN(C(=O)Cn1nc(-c2ccc(C(N)=O)cc2)c2ccc(OC)cc2c1=O)c1ccc2c(c1)OC(F)(F)O2` [Example 75, 4-(3-(2-((2,2-difluorobenzo[d][1,3]dioxol-5-yl)(ethyl)amino)-2-oxoethyl)-6-methoxy-4-oxo-3,4-dihydrophthalazin-1-yl)benzamide], the negative logarithm of the EC50 (pEC50) is over 5.00.

With `COc1ccc2c(-c3ccc(C(N)=O)cc3)nn(CC(=O)N(C)c3ccc4c(c3)OC(F)(F)O4)c(=O)c2c1` [Example 76, 4-(3-(2-((2,2-difluorobenzo[d][1,3]dioxol-5-yl)(methyl)amino)-2-oxoethyl)-6-methoxy-4-oxo-3,4-dihydrophthalazin-1-yl)benzamide], the pEC50 is over 5.00.

As to `CCN(C(=O)Cn1nc(-c2ccc(C(N)=O)cc2)c2ccc(OC)cc2c1=O)c1ccc2nc(C)oc2c1` [Example 77, 4-(3-(2-(ethyl(2-methylbenzo[d]oxazol-6-yl)amino)-2-oxoethyl)-6-methoxy-4-oxo-3,4-dihydrophthalazin-1-yl)benzamide], the negative-log EC50 (pEC50) was over 5.00.

For `CCN(C(=O)Cn1nc(C(=O)Nc2ccccc2C#N)c2ccccc2c1=O)c1ccc2c(c1)OC(F)(F)O2` [Example 78, N-(2-cyanophenyl)-3-(2-((2,2-difluorobenzo[d][1,3]dioxol-5-yl)(ethyl)amino)-2-oxoethyl)-4-oxo-3,4-dihydrophthalazine-1-carboxamide], the negative-log EC50 (pEC50) is 4.70 to 5.00.

`CCN(C(=O)Cn1nc(C(=O)Nc2cc(Cl)ccc2C(=O)O)c2ccccc2c1=O)c1ccc2c(c1)OC(F)(F)O2` [Example 79, 4-chloro-2-(3-(2-((2,2-difluorobenzo[d][1,3]dioxol-5-yl)(ethyl)amino)-2-oxoethyl)-4-oxo-3,4-dihydrophthalazine-1-carboxamido)benzoic acid]: the pEC50 is over 5.00.

As to `CCN(C(=O)Cn1nc(C(=O)Nc2ccccn2)c2ccccc2c1=O)c1ccc2c(c1)OC(F)(F)O2` [Example 80, 3-(2-((2,2-difluorobenzo[d][1,3]dioxol-5-yl)(ethyl)amino)-2-oxoethyl)-4-oxo-N-(pyridin-2-yl)-3,4-dihydrophthalazine-1-carboxamide], the negative logarithm of the EC50 (pEC50) is under 4.70.

Turning to `CCN(C(=O)Cn1nc(C(=O)N(C)c2ccccn2)c2ccccc2c1=O)c1ccc2c(c1)OC(F)(F)O2` [Example 81, 3-(2-((2,2-difluorobenzo[d][1,3]dioxol-5-yl)(ethyl)amino)-2-oxoethyl)-N-methyl-4-oxo-N-(pyridin-2-yl)-3,4-dihydrophthalazine-1-carboxamide], the pEC50 is 4.70 to 5.00.

For the compound `CCc1ccc(N(CC)C(=O)Cn2nc(C(=O)Nc3cc(Cl)ccc3C#N)c3ccccc3c2=O)cc1` [Example 82, N-(5-chloro-2-cyanophenyl)-3-(2-(ethyl(4-ethylphenyl)amino)-2-oxoethyl)-4-oxo-3,4-dihydrophthalazine-1-carboxamide], the negative-log EC50 (pEC50) was over 5.00.

Source of the values: patent publication US9790215B2 (FLATLEY DISCOVERY LAB, LLC, priority 2013, dated 2017).
